Results taken from patent publication US4861876A, “Hematoporphyrin derivative and method of preparation and purification” (priority 1986, dated 1989).

What was measured:
L1210 cells = assay: In vitro uptake by L1210 tumor cells; format: cell-based, mouse; settings: 24 hours, 10 μg/ml; for Uptake in vitro: average + SD of three determinations
Method: Uptake of DHE or CHE, purified by gel-exclusion chromatography, was measured by extraction of cells after 24 hour incubations in vitro. Cell pellets (20-30 mg) were suspended in 800 μL of phosphate buffer (pH 3.5) and shaken for 3 minutes with 2 ml of a 1:1 mixture of methanol: chloroform. The lower phase was collected by centrifugation and used for measurement of absorbance at 400 nm.
In vitro uptake of DHE, CHE and HPD, hematoporphyrin, mesochlorin and bonellin by tumor cells was studied using L1210 cells incubated for 24 hours with 10 μg/ml concentrations of each respective compound. The cells were then washed for 30 minutes in fresh medium at 37° C. and drug concentrations were determined.

Lewis lung tumor = assay: In vivo accumulation in Lewis lung tumor (extraction, fluorescence); settings: for accumulation of fluorescent components at tumor loci (in words) / Uptake in vivo: 5 mg/kg i.p., 48 hours after injection; for Uptake in vivo: average + SD of three determinations; for fluorescence emission of tumor extracts (in words): excitation 400 nm, FIG. IV
Method: In vivo biological studies were conducted using DHE, CHE, HPD, hematoporphyrin, mesochlorin and bonellin. The Lewis lung tumor was maintained in female C57BL/6 mice by S.C. implant. Seven days after implantation, a respective compound was administered to test mice by i.p. injection at a dosage level of 5 mg/kg. Forty-eight hours after injection, each tumor was excised, weighed and homogenized in 50 mM 4-(2-hydroxyethyl)-1-piperazineethanesulfonic acid buffer (pH7) containing 10 mM cetyltrimethyl ammonium bromide (1 m./100 mg tissue). The resulting homogenates were shaken with 2.5 volumes of methanol: chloroform (1:1) and the phases separated by centrifugation. Under these conditions, fluorescence is quantitatively extracted into the chloroform-rich phase. These extracts were used for determination of fluorescence emission spectra (excitation wave length, 400 nm). […] For analytical studies, the extracts were evaporated and the residue hydrolyzed in 0.5 M HCl at 37° C. for 18 hours.

[1] = system: L1210 mouse/leukemia cells; assay: Photodynamic effects on cell viability as a function of irradiation wavelength (soft-agar clonogenic assay); format: cell-based; settings: for Action spectrum: cell viability after irradiation at 620 nm (mean + SD of control percentage) / Action spectrum: cell viability after irradiation at 630 nm (mean + SD of control percentage) / Action spectrum: cell viability after irradiation at 640 nm (mean + SD of control percentage) / Action spectrum: cell viability after irradiation at 650 nm (mean + SD of control percentage): 24 h incubation, 5 g/ml (so in the source), 2000 J/m^2, five minutes; for optimal phototoxic light wave length: cells loaded for 24 hours
Method: In order to determine the photosensitization capacity of DHE and CHE, respectively, comparison in vitro tests were prepared using L1210 mouse/leukemia cells grown in culture using Fischer's medium plus 10 percent horse serum. Cell suspensions (7 mg/ml wet weight) were incubated for 24 hours in growth medium containing the 5 µg/ml of the respective photosensitizer. The cell suspensions were, then, washed for 30 minutes at 37° C. in fresh medium to remove readily diffusible porphyrine.
Irradiation was carried out for five minutes (fluence =2000 J/m^2) using a 100 w tungsten-halogen lamp with a wave length selected via narrow bandpass interference filters (=10 nm). Photodynamic effects on cell viability, as a function of irradiation wavelength, were measured by a soft-agar clonogenic assay in the manner described in Kessel, "Determinants of Hematoporphyrincatalyzed Photosensitization" 36 Photochemical Photobiology pp. 99-101 (1982) which is incorporated herein by reference. Light filters were purchased from the Oriel Corp. of Stanford, CT, and the light flux was measured with a thermopile obtained from the same source.

[2] = Storage stability of aqueous solutions of CHE; format: physicochemical
Method: The storage stability of aqueous solutions of CHE (ph 7.5) is determined at -20° C. and at 4° C. respectively.

Molecule	Uptake in vitro (L1210 cells)	accumulation of fluorescent components at tumor loci (in words) (Lewis lung tumor)	Uptake in vivo (Lewis lung tumor)	Action spectrum: cell viability after irradiation at 620 nm (mean + SD of control percentage) [1]	Action spectrum: cell viability after irradiation at 630 nm (mean + SD of control percentage) [1]	Action spectrum: cell viability after irradiation at 640 nm (mean + SD of control percentage) [1]	Action spectrum: cell viability after irradiation at 650 nm (mean + SD of control percentage) [1]	optimal phototoxic light wave length [1]	lethality relative to DHE ([1]; constant flux of 2000 J/M^2, CHE vs DHE)	in vitro accumulation compared between drugs (in words) (L1210 cells)	fluorescence emission of tumor extracts (in words) (Lewis lung tumor)	storage stability of aqueous solution at 4° C. ([2]; pH 7.5, 4° C.)	storage stability of aqueous solution at -20° C. ([2]; pH 7.5, -20° C.)
CC1=C(CCC(=O)O)c2cc3nc(cc4[nH]c(cc4C)cc4[nH]c(cc1n2)cc4C)C(C)(C)C3CCC(=O)O (centres unmarked) [Bonellin, bonellin]	0.06 µg/100 mg cells	no detectible concentration of fluorescent products at tumor loci	< 0.01										
CCC1=C(C)c2cc3[nH]c(cc4nc(cc5[nH]c(cc1n2)c(C)c5CCC(=O)OC(C)C1=C(C)c2cc5[nH]c(cc6nc(cc7[nH]c(cc1n2)c(C)c7CCC(=O)O)C(CCC(=O)O)=C6C)c(C)c5C(C)O)C(CCC(=O)O)C4C)c(C)c3CC (centres unmarked) [CHE, chlorin-hematoporphyrin ester]				96 + 5 control percentage	87 + 5 control percentage	10 + 2 control percentage	65 + 2 control percentage	640 nm	5 fold	almost identical	greater tumor fluorescence emission at 647 nm than at 627 nm	gradual hydrolysis of the ester-linkage	remained stable
Dihematoporphyrin ester [DHE]	0.49	accumulation of fluorescent components at tumor loci	2.1	68 + 4 control percentage	45 + 2 control percentage	85 + 5 control percentage	96 + 3 control percentage	630 nm		almost identical	fluorescence at 627 nm only		
